Results: ChEMBL document CHEMBL1201862, “PubChem BioAssay data set” (2004)
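Growth conditions: 96-well plates. Treatment: test compound, 48 hours, 5 concentrations. Analysis: linear interpolation between bracketing concentrations; unreached endpoints set to highest concentration. At the GI50, growth is halved.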 Activity calls are given as the source filed them. No stated cut-off is given here; in the data, active = GI50 up to about 1.1 µM and inactive = higher.

Tests used:
Assay in all cases: inhibition of tumour cell growth, NCI panel, 48 h
A549 = test system: A549
HL-60 = test system: HL-60
IGROV-1 = test system: IGROV-1
LXFL 529 = test system: LXFL 529
M19-MEL = test system: M19-MEL
NCI-H226 = test system: NCI-H226
NCI-H460 = test system: NCI-H460
OVCAR-5 = test system: OVCAR-5
SK-OV-3 = test system: SK-OV-3
SR = test system: SR
SW-620 = test system: SW-620
UACC-257 = test system: UACC-257
XF498 = test system: XF498
HCT-116 = test system: HCT-116
OVCAR-4 = test system: OVCAR-4
CAKI-1 = test system: CAKI-1
DU-145 = test system: DU-145
Hs-578T = test system: Hs-578T
MDA-N = test system: MDA-N
T47D = test system: T47D

| Structure (SMILES) | GI50 (A549) | GI50 (HL-60) | GI50 (IGROV-1) | GI50 (LXFL 529) | GI50 (M19-MEL) | GI50 (NCI-H226) | GI50 (NCI-H460) | GI50 (OVCAR-5) | GI50 (SK-OV-3) | GI50 (SR) | GI50 (SW-620) | GI50 (UACC-257) | GI50 (XF498) | GI50 (HCT-116) | GI50 (OVCAR-4) | GI50 (CAKI-1) | GI50 (DU-145) | GI50 (Hs-578T) | GI50 (MDA-N) | GI50 (T47D) |
| --- | --- | --- | --- | --- | --- | --- | --- | --- | --- | --- | --- | --- | --- | --- | --- | --- | --- | --- | --- | --- |
| C[C@]12CCC3[C@@H](C[C@H]4OC(=O)[C@@]35CCC(=O)C=C45)C1CCC2=O (some centres not stated) | > 100 µM (inactive) | > 100 µM (inactive) | > 100 µM (inactive) | > 100 µM (inactive) | > 100 µM (inactive) | > 100 µM (inactive) | > 100 µM (inactive) | > 100 µM (inactive) | > 100 µM (inactive) | > 100 µM (inactive) | > 100 µM (inactive) | > 100 µM (inactive) | > 100 µM (inactive) | – | – | – | – | – | – | – |
| Nc1nc(Cl)cc(NCCCCO)n1 | > 100 µM (inactive) | > 100 µM (inactive) | > 100 µM (inactive) | > 100 µM (inactive) | > 100 µM (inactive) | > 100 µM (inactive) | > 100 µM (inactive) | > 100 µM (inactive) | > 100 µM (inactive) | > 100 µM (inactive) | > 100 µM (inactive) | > 100 µM (inactive) | – | > 100 µM (inactive) | > 100 µM (inactive) | – | – | – | – | – |
| COn1oc(=O)c2ccccc21 | > 100 µM (inactive) | > 100 µM (inactive) | > 100 µM (inactive) | – | – | > 100 µM (inactive) | > 100 µM (inactive) | > 100 µM (inactive) | > 100 µM (inactive) | – | > 100 µM (inactive) | > 100 µM (inactive) | – | > 100 µM (inactive) | > 100 µM (inactive) | > 100 µM (inactive) | > 100 µM (inactive) | > 100 µM (inactive) | > 100 µM (inactive) | – |
| COC(C[C@H]1CCCC[C@]1(O)/C(=C\CO[Si](C(C)C)(C(C)C)C(C)C)Sc1ccccc1)OC | 28.6 µM (inactive) | 38.2 µM (inactive) | 52.7 µM (inactive) | – | – | 23.2 µM (inactive) | 60 µM (inactive) | 38.4 µM (inactive) | > 100 µM (inactive) | 20.7 µM (inactive) | – | 42.4 µM (inactive) | – | 22.5 µM (inactive) | 39.2 µM (inactive) | 32.4 µM (inactive) | 40.1 µM (inactive) | 29.4 µM (inactive) | 45.2 µM (inactive) | 12.6 µM (inactive) |
| CCOC(=O)CC1(c2cccc3ccccc23)OC(=O)c2ccccc21 (configuration not stated) | 41 µM (inactive) | 22.1 µM (inactive) | > 100 µM (inactive) | 51.2 µM (inactive) | 48.5 µM (inactive) | 67 µM (inactive) | 37.6 µM (inactive) | > 100 µM (inactive) | > 100 µM (inactive) | – | 79.4 µM (inactive) | 56.4 µM (inactive) | – | – | 40.4 µM (inactive) | 57.7 µM (inactive) | – | – | – | – |
| O=S(O)CCCCCSSc1ccccc1 | – | 14.1 µM (inactive) | – | 17 µM (inactive) | 50 µM (inactive) | – | 68.9 µM (inactive) | > 100 µM (inactive) | > 100 µM (inactive) | 8.02 µM (inactive) | – | 39 µM (inactive) | 24.2 µM (inactive) | 24.3 µM (inactive) | > 100 µM (inactive) | – | – | – | – | – |
| Nc1nc(SCCc2ccccc2)nc2nc3c(c(-c4ccccc4)c12)CCCC3 | > 100 µM (inactive) | > 100 µM (inactive) | > 100 µM (inactive) | – | – | – | > 100 µM (inactive) | – | 99.1 µM (inactive) | – | > 100 µM (inactive) | > 100 µM (inactive) | – | > 10 µM (inactive) | 40.9 µM (inactive) | > 100 µM (inactive) | > 100 µM (inactive) | 8.65 µM (inactive) | > 100 µM (inactive) | > 100 µM (inactive) |
| Oc1cc(-c2ccc(Cl)cc2)nc2ncccc12 | 54.2 µM (inactive) | – | 44.3 µM (inactive) | – | – | 44.6 µM (inactive) | – | > 100 µM (inactive) | 46 µM (inactive) | 5.56 µM (inactive) | 31.1 µM (inactive) | 53.5 µM (inactive) | – | – | 56.6 µM (inactive) | 61.9 µM (inactive) | > 100 µM (inactive) | 56.2 µM (inactive) | – | 61.7 µM (inactive) |
| C=C1C(O)C2(O)OCC34C(CC5C(C)=CC(=O)C(O)C5(C)C23)OC(=O)C(OC(=O)C/C=C/CCCCCCCC)C14 (configuration not stated) | 0.0249 µM (active) | 0.02 µM (active) | 0.02 µM (active) | – | 0.02 µM (active) | 0.02 µM (active) | – | 0.112 µM (active) | 0.056 µM (active) | – | 0.0217 µM (active) | – | 0.0221 µM (active) | 0.02 µM (active) | – | 0.0449 µM (active) | – | – | – | – |
| O=C(NC(Cc1ccc(I)cc1)C(=O)O)c1cccc(Br)c1 (configuration not stated) | > 100 µM (inactive) | > 100 µM (inactive) | > 100 µM (inactive) | – | 56.2 µM (inactive) | > 100 µM (inactive) | 96.8 µM (inactive) | > 100 µM (inactive) | > 100 µM (inactive) | – | > 100 µM (inactive) | > 100 µM (inactive) | – | > 100 µM (inactive) | > 92.9 µM (inactive) | > 100 µM (inactive) | – | – | – | – |
| Cc1cc([N+](=O)[O-])ccc1/N=N/C(=O)NNc1ccc([N+](=O)[O-])cc1C | 15.8 µM (inactive) | 20 µM (inactive) | 19.6 µM (inactive) | – | – | 15.3 µM (inactive) | 17.6 µM (inactive) | 17.1 µM (inactive) | – | 20.7 µM (inactive) | 16.7 µM (inactive) | 20 µM (inactive) | – | 11.2 µM (inactive) | 14.1 µM (inactive) | 14.8 µM (inactive) | 16.5 µM (inactive) | – | 15.7 µM (inactive) | 15.3 µM (inactive) |
| CCC1NC(/N=N/c2ccc([N+](=O)[O-])cc2)(P(=O)(OC(C)C)OC(C)C)OC1=O (configuration not stated) | > 100 µM (inactive) | > 100 µM (inactive) | > 100 µM (inactive) | > 100 µM (inactive) | > 100 µM (inactive) | – | – | > 100 µM (inactive) | > 100 µM (inactive) | > 100 µM (inactive) | > 100 µM (inactive) | > 100 µM (inactive) | > 100 µM (inactive) | > 100 µM (inactive) | > 100 µM (inactive) | > 100 µM (inactive) | – | – | – | – |
